For seven compounds, IC50 results are on record in patent US9809574B2, “Isoindoline or isoquinoline compounds, a process for their preparation and pharmaceutical compositions containing them” (LES LABORATOIRES SERVIER, priority 2013, dated 2017).

Structures can show the parent of a compound that is named as a salt. Where only a bound is given, the exact number is not on record here.

The subject of assay [1] is RS4; 11 leukaemia cell line. Description: In vitro cytotoxicity, Microculture Tetrazolium Assay (MTT). The assay is classed as cell-based. The following applies: 11 cells exposed for 48 hours. On the procedure: The cytotoxicity studies were carried out on the RS4; 11 leukaemia cell line and on H146 small Cell Lung Carcinoma cell line. The cells are distributed onto microplates and exposed to the test compounds for 48 hours. The cell viability is then quantified by a colorimetric assay, the Microculture Tetrazolium Assay (Cancer Res., 1987, 47, 939-942).

The target of the next assay is Bcl-2 protein (histag-Bcl-2, UniProtKB P10415) (Homo sapiens (Human), UniProt P10415). Description: Inhibition of Bcl-2 by the fluorescence polarisation technique. The following applies: fluorescence polarisation test; incubation for 2 hours; read-out: IC50 (nM) Bcl-2 FP. The class given is binding. The text has this:
For partial inhibitors, the percentage fluorescence polarisation inhibition for a given concentration of the test compound is indicated.

Sequence of Bcl-2 protein (P10415 whole entry): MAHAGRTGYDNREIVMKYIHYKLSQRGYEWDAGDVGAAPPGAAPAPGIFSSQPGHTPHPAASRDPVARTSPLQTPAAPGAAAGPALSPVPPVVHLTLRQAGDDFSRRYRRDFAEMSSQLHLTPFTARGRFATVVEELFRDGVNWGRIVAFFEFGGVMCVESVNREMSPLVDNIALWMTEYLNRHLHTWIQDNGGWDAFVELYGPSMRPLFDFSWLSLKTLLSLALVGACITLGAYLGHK

With `Cc1c(C(=O)N(C)c2ccc(O)cc2)cc(-c2cc3c(cc2C(=O)N2Cc4ccccc4C[C@H]2C)CN(C(=O)OC2CCC(NC(=O)OC(C)(C)C)CC2)CC3)n1C` (stereo partly drawn) [Example 800, (1r,4r)-4-{[(tert-Butoxy)carbonyl]amino}cyclohexyl 6-{4-[(4-hydroxyphenyl)(methyl)carbamoyl]-1,5-dimethyl-1H-pyrrol-2-yl}-7-[(3R)-3-methyl-1,2,3,4-tetrahydroisoquinoline-2-carbonyl]-1,2,3,4-tetrahydroisoquinoline-2-carboxylate], the IC50 (commonly the point on the concentration scale where inhibition reaches its midpoint) turned out to be 3.2 nM in assay [1] and 2 nM at Bcl-2 protein.
Consider `Cc1c(C(=O)N(C)c2ccc(O)cc2)cc(-c2cc3c(cc2C(=O)N2Cc4ccccc4C[C@H]2C)CN(C(=O)OC2CCC(N)CC2)CC3)n1C` (stereo partly drawn) [Example 801, (1r,4r)-4-Aminocyclohexyl 6-{4-[(4-hydroxyphenyl)(methyl)carbamoyl]-1,5-dimethyl-1H-pyrrol-2-yl}-7-[(3R)-3-methyl-1,2,3,4-tetrahydroisoquinoline-2-carbonyl]-1,2,3,4-tetrahydroisoquinoline-2-carboxylate hydrochloride], for which the IC50 in assay [1] is more than 150 nM; on Bcl-2 protein it was 2.7 nM.
For `Cc1c(C(=O)N(C)c2ccc(O)cc2)cc(-c2cc3c(cc2C(=O)N2Cc4ccccc4C[C@H]2C)CN(C(=O)OC2CCC(N(C)C)CC2)CC3)n1C` (stereo partly drawn) [Example 802, (1r,4r)-4-(Dimethylamino)cyclohexyl 6-{4-[(4-hydroxyphenyl)(methyl)carbamoyl]-1,5-dimethyl-1H-pyrrol-2-yl}-7-[(3R)-3-methyl-1,2,3,4-tetrahydroisoquinoline-2-carbonyl]-1,2,3,4-tetrahydroisoquinoline-2-carboxylate] the same measures were 99 nM and 4 nM.
For the compound `CC(=O)N(C)c1ccc(OC(=O)N2CCc3cc(-c4cc(C(=O)N(C)c5ccc(O)cc5)c(C)n4C)c(C(=O)N4Cc5ccccc5C[C@H]4CN4CCOCC4)cc3C2)cc1` [Example 803, 4-(N-Methylacetamido)phenyl 6-{4-[(4-hydroxyphenyl)(methyl)carbamoyl]-1,5-dimethyl-1H-pyrrol-2-yl}-7-[(3S)-3-(morpholin-4-ylmethyl)-1,2,3,4-tetrahydroisoquinoline-2-carbonyl]-1,2,3,4-tetrahydroisoquinoline-2-carboxylate], the results for the IC50 (in assay [1] (Homo sapiens); on Bcl-2 protein) were 37 nM and 4.6 nM, respectively.
With `Cc1c(C(=O)N(C)c2ccc(O)cc2)cc(-c2cc3c(cc2C(=O)N2Cc4ccccc4C[C@H]2C)CN(C(=O)Oc2ccc(CCC(=O)N(C)C)cc2)CC3)n1C` [Example 804, 4-[2-(Dimethylcarbamoyl)ethyl]phenyl 6-{4-[(4-hydroxyphenyl)(methyl)carbamoyl]-1,5-dimethyl-1H-pyrrol-2-yl}-7-[(3R)-3-methyl-1,2,3,4-tetrahydroisoquinoline-2-carbonyl]-1,2,3,4-tetrahydroisoquinoline-2-carboxylate], the figures for the IC50 (in assay [1] (Homo sapiens); at Bcl-2 protein) were 2.2 nM and 3.6 nM, respectively.
As to `Cc1ccc(OC(=O)N2CCc3cc(-c4cc(C(=O)N(c5ccc(O)cc5)c5cc(C#N)n(C)c5C)c(C)n4C)c(C(=O)N4Cc5ccccc5C[C@H]4CN4CCOCC4)cc3C2)cc1` [Example 805, Tolyl 6-[4-[(5-cyano-1,2-dimethyl-1H-pyrrol-3-yl)-(4-hydroxyphenyl)carbamoyl]-1,5-dimethyl-1H-pyrrol-2-yl]-7-[(3S)-3-(morpholinomethyl)-3,4-dihydro-1H-isoquinoline-2-carbonyl]-3,4-dihydro-1H-isoquinoline-2-carboxylate hydrochloride], the IC50 in assay [1] amounted to 0.12 nM; on Bcl-2 protein, 3.1 nM.
With `Cc1c(C(=O)N(C)c2ccc(O)cc2)cc(-c2cc3c(cc2C(=O)N2Cc4ccccc4C[C@H]2C)CN(C(=O)[C@@H](O)c2ccccc2)C3)n1C` [Example 806, N-(4-Hydroxyphenyl)-5-(2-[(2S)-2-hydroxy-2-phenylacetyl]-6-{[(3R)-3-methyl-3,4-dihydroisoquinolin-2(1H)-yl]carbonyl}-2,3-dihydro-1H-isoindol-5-yl)-N,1,2-trimethyl-1H-pyrrole-3-carboxamide], the values for the IC50 (in assay [1] (Homo sapiens); at Bcl-2 protein) were more than 150 nM and 33 nM, respectively.
